# Data from article PMC3341351, “Down-Regulation of GABAA Receptor via Promiscuity with the Vasoactive Peptide Urotensin II Receptor. Potential Involvement in Astrocyte Plasticity” (PLoS ONE, 2012).
# Read-outs that look alike come from different tables or passages of the source. Where a SMILES comes first, the peptide text is derived from it. Bridges are numbered along the chain shown (N, C = ends). [ ]: non-standard residue; d: D form. pGlu = O=C1CC[C@@H](C(=O)O)N1
# B1: UT^c-myc 319–389: peptidomimetic corresponding to the entire C-terminus cytosolic fragment of UT (protein, UniProt Q9UKP6 319-389, looked up, fragment)
# chain: TRNYRDHLRGRVRGPGSGGGRGPVPSLQPRARFQRCSGRSLSSCSPQPTDSLVLAPAAPARPAPEGPRAPA
# modifications: c-myc tag
# Key:
# Format in all cases: cell-based
# [1] = biological target: T1, α2β3γ2 GABAAR co-expressed with human UT (Homo sapiens, UniProt Q9UKP6); test: Patch-clamp of Iso-evoked current in CHO-UT co-expressing α2β3γ2 GABAAR (CHO-UT-GABAAR); conditions: for Current inhibition by GABAAR antagonists: SR95531 10^−5 M, picrotoxin 10^−4 M
# T1 construct: expressed in transfected cells; host or cells: CHO-K1 stably expressing human UT (pIRES-neo2-UT), transiently nucleofected with GABAAR subunit cDNAs
# T1 sequence (Q9UKP6 1-389): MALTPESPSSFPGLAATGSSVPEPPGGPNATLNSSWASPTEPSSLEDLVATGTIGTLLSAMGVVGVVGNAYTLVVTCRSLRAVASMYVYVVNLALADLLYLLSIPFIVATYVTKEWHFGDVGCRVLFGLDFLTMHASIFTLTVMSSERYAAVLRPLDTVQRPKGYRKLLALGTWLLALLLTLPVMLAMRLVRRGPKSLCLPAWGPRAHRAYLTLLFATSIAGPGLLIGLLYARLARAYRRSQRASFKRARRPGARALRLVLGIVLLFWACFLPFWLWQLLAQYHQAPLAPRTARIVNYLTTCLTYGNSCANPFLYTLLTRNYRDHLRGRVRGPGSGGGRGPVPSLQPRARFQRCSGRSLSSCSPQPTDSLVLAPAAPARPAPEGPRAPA
# Protocol: CHO-K1 cell lines were obtained from American Type Culture Collection (Manassas, VA, USA). The human UT stable CHO (CHO-UT) was generously provided by Dr Christophe Dubessy (Inserm, Rouen University, France) et generated by CHO electroporation with 20 µg pIRES-neo2-UT DNA and 500 µg sterile sonicated salmon sperm DNA using the EasyJect One electroporation system (Equibio, Angleur, Belgium), followed by repetitive rounds of limiting dilution of cells in G-418 (400 µg/ml) for selection. Normal or stable CHO was grown in Ham-F12 medium supplemented with 10% FBS, 1% antibiotic-antimicotic solution and 2 mM glutamine, at 37°C in a humidified incubator with an atmosphere of 5% CO2. The stable CHO-UT medium was supplemented with the antibiotic G-418 (40 µg/ml).
# (§1) For transfection, cells were trypsinized (0.05%), triturated in HamF-12 containing 10% FBS media, pelleted by centrifugation, resuspended in 100 µl solution V for nucleofection by an Amaxa Nucleofector Device (Köln, Germany; set to program U-016). Experiments were performed on normal CHO or on the stable CHO-UT cells and transiently transfected with combinations of cDNA encoding α2β3γ2, α2β3γ1, α2β1γ2, α2β3γ1, α2β3, β3γ2 (4 µg of cDNA total/transfection) GABAAR subunits. Cells were seeded on 14-mm poly-L-lysine-coated glass bottom insert dishes at 5×10^5 cells in a volume of 0.5 ml/dish. Cells were incubated overnight at 37°C in a humidified incubator (5% CO2) during 16 h before electrophysiological or immunocytochemical experiments.
# (§2) GABAA receptor cDNA clones; α2, β1, β3, γ1 and γ2L engineered into the expression vector pCDM8 ([…], β1, γ2) or pcDNA/Amp (β3, γ1), were generously provided by Dr Wingrove (Merk Sharp and Dohme, Harlow, UK). To obtain β3 ^HA or γ2 ^HA epitope-tagged subunits, β3 or γ2 cDNA was amplified and the PCR product was subcloned using the SalI and NotI sites of pCMV-HA (Table S2) after digestion by the same restriction enzymes.
# (§3) The conventional whole-cell configuration of the patch-clamp technique was used to study the GABA-gated currents in astrocytes and granule neurons, UT stably transfected CHO, CHO-UT, and CHO transiently transfected with diverse variants of UT and GABAAR subunits. After 24-h transfection, cell culture coverslips were placed in a small chamber (1.5 ml) on a stage of a right microscope DMLFSA (Leica, Heidelberg, Germany) and superfused continuously with the following bath solution containing (in mM): NaCl, 150; KCl, 2.5; HEPES, 5; CaCl2, 2; MgCl2, 1; glucose, 10 (pH 7.4 adjusted with NaOH). The patch pipettes were fabricated from 1.5 mm (outer diameter) soft glass tubes on a two-step vertical pipette puller (List-Medical, L/M-3P-A, Darmstadt, Germany). […] ATP and GTP were added to the internal solution used to fill electrode just before recording. All recordings were obtained at RT with cells voltage-clamped at −70 mV. The GABAA receptor agonist isoguvacine was prepared in the extracellular solution and was applied to cells by pneumatic pressure ejection. To prevent desenzitization, isoguvacine was more often ejected during 5 s at 2-min intervals. ATP, GTP, or guanosine 5′-O-(2-thiodiphosphate) (GDPβS) were administered through the patch pipette solution. We investigated the effect of competitive inhibition of GDP-GTP exchange by including GDPβS in the pipette solution (in addition to the normal amount of GTP). For GDPβS and the KIC, immediately following patch rupture, GABA current recordings were performed and the experiment was commenced after an equilibration period of 15 min.
# All peptide ligands, inhibitors or allosteric modulators of the GABAA receptor function were applied via gravity through a plastic tubing positioned in the vicinity of the cell body in order to maintain a sustained perfusion. In these conditions, drugs could reach the cell of interest after 30 s of perfusion. Isoguvacine was applied focally by pneumatic pressure ejection from a micropipette.
# [2] = tested on: α2β3γ2 GABAAR in the absence of UT; test: Patch-clamp of Iso-evoked current in CHO expressing α2β3γ2 GABAAR without UT; conditions: DMCM 10^−5 M; hUII and URP 10^−8 M; [Orn^5]-URP and palosuran 10^−6 M; Iso 10^−4 M, 2 s; n = 3–18
# Protocol: as §1, §2
# as §3, with “min. […]” for “min.”
# [3] = biological target: T2, GABAAR in cerebellar astrocytes (UT co-expressed) (Rattus norvegicus, UniProt P49684); test: Whole-cell patch-clamp of isoguvacine (Iso)-evoked depolarization/chloride current in cerebellar astrocytes co-cultured with granule neurons; conditions: for inhibition at 0.1 µM: rUII 10^−7 M, 40 s, Iso 10^−4 M, mean ± SEM, n = 5
# T2 construct: Astrocytes, recognized by strong GFAP staining show UT immunoreactivity; endogenous in cells; host or cells: primary rat (P7 Wistar) cerebellar astrocytes co-cultured with cerebellar granule neurons
# T2 sequence (P49684 1-386): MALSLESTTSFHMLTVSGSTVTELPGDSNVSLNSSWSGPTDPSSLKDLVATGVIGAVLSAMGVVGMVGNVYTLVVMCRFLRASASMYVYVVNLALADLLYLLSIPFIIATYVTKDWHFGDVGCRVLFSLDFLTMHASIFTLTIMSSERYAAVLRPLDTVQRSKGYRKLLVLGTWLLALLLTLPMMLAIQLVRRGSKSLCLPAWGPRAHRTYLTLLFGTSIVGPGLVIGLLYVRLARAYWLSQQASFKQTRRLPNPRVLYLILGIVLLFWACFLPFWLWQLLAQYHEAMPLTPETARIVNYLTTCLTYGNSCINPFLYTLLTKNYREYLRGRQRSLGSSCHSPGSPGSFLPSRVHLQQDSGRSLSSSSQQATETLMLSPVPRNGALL
# Protocol: Primary Cell Culture of astrocytes and astrocyte-neurone co-culture
# Primary cultures of astrocytes were prepared as previously described. Briefly, cerebellum from 7-day-old (P7) Wistar rats were collected in DMEM/Ham-F12 (2∶1, v/v) culture medium supplemented with 2 mM glutamine, 1% insulin, 5 mM HEPES, 0.4% D(+)-glucose and 1% of the antibiotic-antimycotic solution. The tissues were disaggregated mechanically with a syringue equipped with a 1-mm gauge needle, and filtered through a 100-µm pore size mesh filter (Falcon, Becton Dickinson, Grenoble, France). Dissociated cells were resuspended in culture medium supplemented with 10% heat-inactivated FBS and seeded in 150-cm^2 culture flasks (Falcon) at a density of 20×10^6 cells/flask. Cells were incubated at 37°C in a humidified atmosphere (5% CO2) and the medium was changed twice a week. When cultures were confluent, the flasks were gently shaken on an orbital shaker at […] for 2 h. Dislodged cells were discarded and a second step of purification was performed at […] for 14–16 h. Remaining adhesive cells were collected by trypsination, centrifuged (800 g, 10 min) and plated in 150-cm^2 flasks. Suspended astrocytes were harvested and seeded in 24-well poly-L-lysine-coated plates. The purity of the cultures was previously assessed by counting the percentage of astrocytes immunostained with GFAP antibodies. The enriched cultures contained >99% astrocytes.
# For astrocyte-neuron co-culture, granule cell cultures were prepared from cerebella of P7 Wistar rats as described previously. Isolated cells were plated on 14-mm culture dishes coated with poly-L-lysine (5 mM) at a density of 1.5×10^6 cells/dish and incubated at 37°C in a humidified atmosphere (5% CO2) for 1 to 10 days before use. Culture medium consisted of DMEM/Ham's F12 (75%/25%) supplemented with 10% FBS, 2 mM glutamine, 5 µg/ml insulin, 25 mM KCl and 1% of antibiotic-antimycotic solution. Co-cultures are obtained by seeding granule cells (1.5×10^6 cells/ml) on cerebellar astrocytes plated in 24-well plates after 12 hours. Co-cultures are maintained in the specific medium for neuron and incubated at 37°C in an humidified atmosphere (5% CO2) for several days.
# as §3, with “min. […]” for “min.”
molecule,measurement,setting,value
O=C(O)CN(CC(=O)O)c1ccccc1OCCOc1ccccc1N(CC(=O)O)CC(=O)O [BAPTA],Reduction of hUII-induced long-term current inhibition,"[1]; BAPTA 10^−4 M intracellular dialysis, n = 9",39.29±10.16%
"CCc1c(C(=O)OC)ncc2[nH]c3cc(OC)c(OC)cc3c12 [DMCM, methyl 6,7-dimethoxy-4-ethyl-β-carboline-3-carboxylate]",Effect on Iso-evoked current in the absence of UT,[2],induced inhibition of the current in most tested cells
Br.COc1ccc(-c2ccc(=N)n(CCCC(=O)O)n2)cc1 [SR95531],Current inhibition by GABAAR antagonists,[1]; Figure S1A,76.92±10.35%
CCCC(C)C1(CC)C(=O)NC(=O)NC1=O (stereo not shown) [pentobarbital],Direct activation of chloride current,"[1]; pentobarbital 10^−5 M, Figure S1A",directly activated a chloride current
same,Potentiation of the Iso-evoked current,"[1]; pentobarbital 10^−5 M, reversible, Figure S1A",196.28±12.33%
CC[C@H](C)[C@H](NC(=O)[C@@H]1CSSC[C@H](NC(=O)[C@H](CCC(=O)O)NC(=O)[C@@H]2CCCN2C(=O)[C@H](C)NC(=O)[C@@H](NC(=O)CNC(=O)[C@H](Cc2c[nH]cn2)NC(=O)[C@@H]2CCC(=O)N2)[C@@H](C)O)C(=O)N[C@@H](Cc2ccccc2)C(=O)N[C@@H](Cc2c[nH]c3ccccc23)C(=O)N[C@@H](CCCCN)C(=O)N[C@@H](Cc2ccc(O)cc2)C(=O)N1)C(=O)O [rUII] ([pGlu]HGTAPECFWKYCI-OH; disulfide 8-13),EC50,"[3]; astrocytes, printed with a % sign before pM, read-out: EC50 for inhibition of the Iso-evoked current",43.6 ± 23.7 pM
same,inhibition at 0.1 µM,"[3]; co-cultured astrocytes, read-out: Inhibition of the amplitude of the Iso-evoked depolarization",24.2 ± 7.5%
same,inhibition at 0.1 µM,"[3]; voltage clamp −60 mV, read-out: Inhibition of the amplitude of the Iso-evoked chloride current",33 ± 8%
picrotoxin,Current inhibition by GABAAR antagonists,[1]; Figure S1A,56.76±4.33%
B1,Effect of UT C-terminal peptidomimetic on fast and long-term effects of hUII on GABA-evoked current,"[1]; UT^c-myc 319–389 expressed in CHO-UT-GABAAR, hUII 10^−8 M",completely inhibited the fast and long-term effects of hUII on the GABA-evoked current
